Results on three compounds are retold here after patent US20250064993A1, “NOVEL BISPIDINE-BASED METAL CHELATING LIGANDS DISPLAYING GOOD RELAXIVITY” (UNIVERSITE DE STRASBOURG, priority 2021, published 2025).

Molecules are shown by their SMILES.

A short description of series [1]: Longitudinal relaxivity r1 in water at 60 MHz (WP80 NMR, Bruker). In kind it is physicochemical. As to conditions: at 25° C., pH = 7.4, and 60 MHz. As for the experimental part: Equimolar quantities of ligand and MnCl2 were dissolved in milli-Q water, the pH was adjusted to 7.4 either with a buffered solution or by adding KOH or HCl to the solution and the samples were heated at 60° C. for 30 min. The absence of free Mn^2+ was checked by the Xylenol orange test.
The relaxivity at 60 MHz is measured with a device commercialized under the brand name WP80 NMR by the firm Brucker according to the following protocol. A millimolar aqueous solution of complex was prepared with Milli-Q water (p<18MΩ). The concentration of Mn^2+-containing samples was checked by ICP-OES and/or NMR by using the bulk magnetic susceptibility. The absence of free Mn^2+ was checked by the Xylenol orange test. For the relaxivity measurement, the temperature was monitored by a VTC91 temperature control unit and maintained by a gas flow. The temperature was determined by previous calibration with a Pt resistance temperature probe.

Series [2] in a line: Kinetic inertness: half-life by transmetallation of the Mn2+ complex with excess Zn2+, followed by water proton relaxation rates. Type of series: physicochemical. The note with it: 25 eq Zn^2+, pH = 6, 37° C.; read-out: Half-life in excess of Zn^2+ (t1/2) (converted). As for the experimental part:
The excess of the exchanging metal ion guarantees the pseudo-first order conditions. For the duration of the experiments (up to 3 months), the samples were stored in a thermostat at 37° C. between the relaxivity measurements. The pH was controlled for each sample at the end of the kinetic measurements to confirm that it remained stable during the experiment. The reactions were monitored by measuring the water proton relaxation rates at 60 MHz on a relaxometer commercialized under the brand name Minispec by the firm a Bruker. The analysis of the experimental data was performed using Visualiseur/Optimiseur running on a MATLAB 8.3.0 (R2014a) platform according to equations (1) and (2): […]
were [MnL]t stands for the total concentration of MnL complex, Kobs stands for the pseudo-first order constant and t1/2 is the half-life of the MnL complex in the given conditions.

The conditions of series [3]: pH of 7.4, 60 MHz, 25° C.; cited from earlier work.

Regarding `CN1[C@@H](c2ccccn2)C2(C(=O)O)CN([C@@H](CCCCNC(=O)CCOCCOCCO)C(=O)O)CC(C(=O)O)([C@H]2O)[C@H]1c1ccccn1` [(I-a)], the “Longitudinal relaxivity in water (r1)” value in series [1] (listed as (I-A)) is 4.89 mM⁻¹ s⁻¹.

Turning to `CN1[C@@H](c2ccccn2)C2(C(=O)O)CN([C@@H](CCCCNC(=O)CCOCCOCCO)C(=O)O)CC(C(=O)O)([C@H]2O)[C@H]1c1ccccn1` [(I-d)], in series [1] (listed as (I-D)), the “Longitudinal relaxivity in water (r1)” value was 4.03 mM⁻¹ s⁻¹. For the same compound, the half-life at 1 mM in series [2] was 160 days.

For the compound `CNC[C@H](O)[C@@H](O)[C@H](O)[C@H](O)CO.O=C([O-])CN1CCN(CC(=O)[O-])CCN(CC(=O)O)CCN(CC(=O)[O-])CC1.[Gd+3]` [Dotarem, gadoterate meglumine], the “relaxivity r1” value in series [3] was 3.7 mM⁻¹ s⁻¹.
